pIC50: −log10 of the molar value.
The compounds below were run against T1, 15-PGDH/HPGD (Homo sapiens, UniProt P15428) (assay: hPGDH inhibitor screening biochemical assay). Conditions: 10 nM enzyme, 15 μM PGE2, 0.25 mM NAD, fluorescence ex/em 340/485 nm.
T1 construct: purchased R&D System 5660-DH
T1 sequence (P15428 1-266): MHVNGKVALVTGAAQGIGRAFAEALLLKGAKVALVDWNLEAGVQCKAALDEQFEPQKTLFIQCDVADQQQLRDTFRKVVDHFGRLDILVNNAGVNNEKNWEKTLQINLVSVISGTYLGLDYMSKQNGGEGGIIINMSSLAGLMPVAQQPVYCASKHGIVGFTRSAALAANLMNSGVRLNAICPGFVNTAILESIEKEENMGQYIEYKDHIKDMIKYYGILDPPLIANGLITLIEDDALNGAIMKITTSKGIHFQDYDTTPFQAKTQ
Procedure: A hydroxyprostaglandin dehydrogenase inhibition screening biochemical assay can be performed to assess the synthesized inhibitors provided herein. Provided herein is an exemplary biochemical assay for hPGDH inhibitor screening.
The in vitro biochemical assay can be performed in white, 384 plates in total 20 μl reaction volume consisting of 10 nM of 15-PGDH/HPGD (R&D System #5660-DH), 15 μM Prostaglandin E2 (Sigma, C8 t #P5640-10 MG) and 0.25 mM β-Nicotinamide adenine dinucleotide sodium salt (Sigma, C8 t #N0632-5G) made in reaction buffer (50 mM Tris-HCl, pH 7.5, 0.01% Tween 20) at 10-point dose response curve for test/tool compounds. Briefly, 5 μl (4×) of compounds solution and 5 μl (final concentration, 10 nM) of enzyme solution is added to white 384 well plates and incubated for 10 mins at 37° C. 5 μl (4×) of […] and 5 μl (4×) of β-Nicotinamide adenine dinucleotide sodium salt is added to the wells and incubated for 10 mins at room temperature. Fluorescence is recorded at ex/em=340 nm/485 nm. The percentage (%) inhibition of enzyme activity was determined relative to positive control (1% DMSO) and IC50 was calculated using GraphPad prism software (four parameter-variable slope equation).

`COc1cc(-c2nnc[nH]2)cc(-n2ccc3cc(C(=O)N4CCC(F)(F)CC4)cnc32)c1` [Compound B-263] and `Cc1ccc(-c2nnc[nH]2)cc1-n1ccc2cc(C(=O)N3CCC(F)(F)CC3)cnc21` [Compound B-271] cannot be ordered by pIC50: greater than 7.00 for the first, greater than 7.00 for the second.

`CO[C@@H]1CCN(C(=O)c2cnc3c(ccn3-c3ccc(-c4ncn[nH]4)nc3)c2)C1` [Compound B-44] and `O=C(c1cnc2c(ccn2-c2ccc(-c3ncn[nH]3)nc2)c1)N1CCC[C@H](O)C1` [Compound B-39] cannot be ordered by pIC50: greater than 7.00 for the first, greater than 7.00 for the second.

`O=C(c1cnc2c(ccn2-c2cc(Cl)cc(-c3nnc[nH]3)c2)c1)N1CCC[C@H](O)C1` [Compound B-265] and `O=C(c1cnc2c(ccn2-c2cccc(-c3nnc[nH]3)c2)c1)N1CCC[C@H](O)C1` [Compound B-260] cannot be ordered by pIC50: greater than 7.00 for the first, greater than 7.00 for the second.

`Cc1cc(-n2ccc3cc(C(=O)N4CCC(F)(F)CC4)cnc32)ccc1C(=O)O` [Compound B-270] and `Cc1cc(-n2ccc3cc(C(=O)N4CCC(F)(F)CC4)cnc32)ccc1-c1nnc[nH]1` [Compound B-255] cannot be ordered by pIC50: greater than 7.00 for the first, greater than 7.00 for the second.

`C[C@H]1CCCN(C(=O)c2cnc3c(ccn3-c3ccc(-c4nnc[nH]4)nc3)c2)C1` [Compound B-28] and `O=C(c1cnc2c(ccn2-c2ccc(-c3nnc[nH]3)nc2)c1)N1CCC2(CC1)CC2` [Compound B-56] cannot be ordered by pIC50: greater than 7.00 for the first, greater than 7.00 for the second.

`O=C(c1cnc2c(ccn2-c2cnc(-c3ncn[nH]3)nc2)c1)N1CCC(F)(F)CC1` [Compound B-45, (1-(2-(1H-1,2,4-triazol-5-yl)pyrimidin-5-yl)-1H-pyrrolo[2,3-b]pyridin-5-yl)(4,4-difluoropiperidin-1-yl)methanone] and `Cc1cnc(-c2ccc(-n3ccc4cc(C(=O)N5CCC(F)(F)CC5)cnc43)cn2)[nH]1` [Compound B-17] cannot be ordered by pIC50: greater than 7.00 for the first, greater than 7.00 for the second.

`O=C(c1cnc2c(ccn2-c2ccc(-c3nnc[nH]3)c(F)c2)c1)N1CC[S+]([O-])CC1` [Compound B-268] and `CC1(O)CCCN(C(=O)c2cnc3c(ccn3-c3ccc(-c4nnc[nH]4)c(F)c3)c2)C1` (stereo not drawn) [Compound B-239] cannot be ordered by pIC50: greater than 7.00 for the first, greater than 7.00 for the second.

`C[C@@]1(O)CCCN(C(=O)c2cnc3c(ccn3-c3ccc(-c4nnc[nH]4)cc3)c2)C1` [Compound B-243] and `O=C(c1cnc2c(ccn2-c2ccc(-c3nnc[nH]3)cc2)c1)N1CCCC(F)(F)C1` [Compound B-61] cannot be ordered by pIC50: greater than 7.00 for the first, greater than 7.00 for the second.

`CO[C@@H]1CCCN(C(=O)c2cnc3c(ccn3-c3ccc(-c4nnc[nH]4)c(F)c3)c2)C1` [Compound B-246] and `CC1(O)CCCN(C(=O)c2cnc3c(ccn3-c3ccc(-c4nnc[nH]4)c(Cl)c3)c2)C1` (stereo not drawn) [Compound B-258] cannot be ordered by pIC50: greater than 7.00 for the first, greater than 7.00 for the second.

`Cc1nn[nH]c1-c1cncc(-n2ccc3cc(C(=O)N4CCC(F)(F)CC4)cnc32)c1` [Compound B-18, (4,4-difluoropiperidin-1-yl) (1-(5-(4-methyl-1H-1,2,3-triazol-5-yl)pyridin-3-yl)-1H-pyrrolo[2,3-b]pyridin-5-yl)methanone] and `Cc1nnc(-c2cncc(-n3ccc4cc(C(=O)N5CCC(F)(F)CC5)cnc43)c2)[nH]1` [Compound B-22, (4,4-difluoropiperidin-1-yl) (1-(5-(5-methyl-4H-1,2,4-triazol-3-yl)pyridin-3-yl)-1H-pyrrolo[2,3-b]pyridine-5-yl) methanone] cannot be ordered by pIC50: greater than 7.00 for the first, greater than 7.00 for the second.

`C[C@@H]1CCCN(C(=O)c2cnc3c(ccn3-c3ccc(C#N)cc3)c2)C1` [Compound B-9, (R)-4-(5-(3-methylpiperidine-1-carbonyl)-1H-pyrrolo12,3-b1 pyridin-1-yl)benzonitrile] and `N#Cc1ccc(-n2ccc3cc(C(=O)N4CC[C@@H](F)C4)cnc32)cc1` [Compound B-126] cannot be ordered by pIC50: greater than 7.00 for the first, greater than 7.00 for the second.

`Cc1nc(-c2cncc(-n3ccc4cc(C(=O)N5CCC(F)(F)CC5)cnc43)c2)c[nH]1` [Compound B-15] and `Nc1nc(-c2cncc(-n3ccc4cc(C(=O)N5CCC(F)(F)CC5)cnc43)c2)no1` [Compound B-11, (1-(5-(5-amino-1,2,4-oxadiazol-3-yl)pyridin-3-yl)-1H-pyrrolo [2,3-b]pyridin-5-yl)(4,4-difluoropiperidin-1-yl)methanone] cannot be ordered by pIC50: greater than 7.00 for the first, greater than 7.00 for the second.

`O=C(c1cnc2c(ccn2-c2ccc(-c3nc[nH]n3)cn2)c1)N1CCC(F)(F)CC1` [Compound B-34, (1-(5-(1H-1,2,4-triazol-3-yl)pyridin-2-yl)-1H-pyrrolo[2,3-b]pyridin-5-yl)(4,4-difluoropiperidin-1-yl)methanone] and `O=C(c1cnc2c(ccn2-c2ccc(-c3nnc[nH]3)cc2F)c1)N1CCC(F)(F)CC1` [Compound B-267] cannot be ordered by pIC50: greater than 7.00 for the first, greater than 7.00 for the second.

`C[C@H]1CN(C(=O)c2cnc3c(ccn3-c3ccc(N4CCOC4=O)nc3)c2)CCC1(F)F` [Compound B-76] and `Nc1nc2ccc(-n3ccc4cc(C(=O)N5CCC(F)(F)CC5)cnc43)cn2n1` [Compound B-12] cannot be ordered by pIC50: greater than 7.00 for the first, greater than 7.00 for the second.

`C[C@H]1CCCN(C(=O)c2cnc3c(ccn3-c3ccc(C(=O)O)cc3)c2)C1` [Compound B-4] and `C[C@@H]1CCN(C(=O)c2cnc3c(ccn3-c3ccc(C(=O)O)cc3)c2)C1` [Compound B-5] cannot be ordered by pIC50: greater than 7.00 for the first, greater than 7.00 for the second.

`O=C(O)c1ccc(-n2ccc3cc(C(=O)N4CC[C@H](F)C4)cnc32)cc1` [Compound B-8] and `O=C(O)c1ccc(-n2ccc3cc(C(=O)N4CC[C@@H](F)C4)cnc32)cc1` [Compound B-6] cannot be ordered by pIC50: greater than 7.00 for the first, greater than 7.00 for the second.

`CC1CN(C(=O)c2cnc3c(ccn3-c3ccc(-c4ncn[nH]4)nc3)c2)CC(C)O1` (stereo not drawn) [Compound B-47, (1-(6-(1H-1,2,4-triazol-5-yl)pyridin-3-yl)-1H-pyrrolo[2,3-b]pyridin-5-yl)(2,6-dimethylmorpholino) methanone] and `O=C(c1cnc2c(ccn2-c2cccc(-c3ncc[nH]3)c2)c1)N1CCC[C@@H](O)C1` [Compound B-269] cannot be ordered by pIC50: greater than 7.00 for the first, greater than 7.00 for the second.

First: O=C(c1cnc2c(ccn2-c2cnn(CC(F)(F)F)c2)c1)N1CCCC(F)(F)C1 [Compound B-57]
Second: O=C(c1cnc2c(ccn2-c2cnn(CC(F)F)c2)c1)N1CCC(F)(F)CC1 [Compound B-235]
The pIC50 of the first is higher: greater than 7.00 for the first, 6.00 to 7.00 for the second. The first is the more potent here.

`Nc1nnc(-c2ccc(-n3ccc4cc(C(=O)N5CCCC(F)(F)C5)cnc43)cc2)[nH]1` [Compound B-54] and `O=C(c1cnc2c(ccn2-c2ccc(-c3nnc[nH]3)cc2)c1)N1CCC[C@H](C(F)(F)F)C1` [Compound B-229] cannot be ordered by pIC50: greater than 7.00 for the first, greater than 7.00 for the second.

`O=C(Nc1cncc(-n2ccc3cc(C(=O)N4CCC(F)(F)CC4)cnc32)c1)C1CC1` [Compound B-93] and `O=C(Nc1cncc(-n2ccc3cc(C(=O)N4CCC(F)(F)CC4)cnc32)c1)C1CCC(F)(F)CC1` [Compound B-237] cannot be ordered by pIC50: greater than 7.00 for the first, greater than 7.00 for the second.

`O=C(c1cnc2c(ccn2-c2ccc3nc(N4CCOCC4)nn3c2)c1)N1CCCC(F)(F)C1` [Compound B-60] and `CCn1cc(-n2ccc3cc(C(=O)N4CCC(F)(F)CC4)cnc32)cn1` [Compound B-95] cannot be ordered by pIC50: greater than 7.00 for the first, greater than 7.00 for the second.

`O=C(c1cnc2c(ccn2-c2ccc(-c3nnc[nH]3)cc2)c1)N1CCSCC1` [Compound B-227] and `CC(C)OC(=O)Nc1cncc(-n2ccc3cc(C(=O)N4CCSCC4)cnc32)c1` [Compound B-256] cannot be ordered by pIC50: greater than 7.00 for the first, greater than 7.00 for the second.

`CCC1CCCN(C(=O)c2cnc3c(ccn3-c3cncc(NC(=O)OC)c3)c2)C1` (stereo in doubt) [Compound B-69, methyl(R)-(5-(5-(3-ethylpiperidine-1-carbonyl)-1H-pyrrolo[2,3-b]pyridin-1-yl)pyridin-3-yl)carbamate] gave a pIC50 greater than 7.00.
